From PubChem BioAssay AID272 (DTP/NCI, 2004)
Where “and” joins values, the source holds several entries; their conditions need not be identical. Equal entries are not always repeated. Inconclusive results are not listed.

System: Lewis lung carcinoma i.m., BDF1 mice, T/C %
Assay: NCI In Vivo Anticancer Drug Screen. Data for tumor model Lewis Lung Carcinoma (intramuscular) in B6D2F1 (BDF1) mice
Conditions: schedule: Q01DX011 (ip)
Method in brief: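 Transplantable tumour model; readout survival or tumour size; value = treated (T) / vehicle control (C).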

Structure (SMILES): CCCCCCCCCCCCCC[n+]1ccccc1
- T/C (endpoint: mean tumor weight (est.), dose: 0.06 mg/kg/injection, vehicle: saline, higher = larger tumour): 82 % of control
- T/C (endpoint: mean tumor weight (est.), dose: 0.07 mg/kg/injection, vehicle: saline, higher = larger tumour): 46 % of control
- T/C (endpoint: mean tumor weight (est.), dose: 0.12 mg/kg/injection, vehicle: saline, higher = larger tumour): 80 % of control
- T/C (endpoint: mean tumor weight (est.), dose: 0.13 mg/kg/injection, vehicle: saline, higher = larger tumour): 42 % of control
- T/C (endpoint: mean tumor weight (est.), dose: 0.5 mg/kg/injection, vehicle: saline, higher = larger tumour): 84 % of control
- T/C (endpoint: median survival time, dose: 0.06 mg/kg/injection, vehicle: saline, higher = longer survival): 100 % of control
- T/C (endpoint: median survival time, dose: 0.07 mg/kg/injection, vehicle: saline, higher = longer survival): 93 % of control
- T/C (endpoint: median survival time, dose: 0.12 mg/kg/injection, vehicle: saline, higher = longer survival): 100 % of control
- T/C (endpoint: median survival time, dose: 0.13 mg/kg/injection, vehicle: saline, higher = longer survival): 100 % of control
- T/C (endpoint: median survival time, dose: 0.25 mg/kg/injection, vehicle: saline, higher = longer survival): 91 % of control and 94 % of control
- T/C (endpoint: median survival time, dose: 0.5 mg/kg/injection, vehicle: saline, higher = longer survival): 100 % of control

Structure (SMILES): NC(C(=O)O)C(F)C(=O)O (centres undefined)
- T/C (endpoint: median survival time, dose: 3.12 mg/kg/injection, vehicle: saline, higher = longer survival): 104 % of control
- T/C (endpoint: median survival time, dose: 6.25 mg/kg/injection, vehicle: saline, higher = longer survival): 98 % of control
- T/C (endpoint: median survival time, dose: 12.5 mg/kg/injection, vehicle: saline, higher = longer survival): 103 % of control

Structure (SMILES): CCCCCCCCCCCCCCCCCC[N+](C)(C)C (tested in a mixture with another compound)
- T/C (endpoint: mean tumor weight, dose: 1.0 mg/kg/injection, vehicle: saline, higher = larger tumour): 59 % of control
- T/C (endpoint: mean tumor weight, dose: 2.0 mg/kg/injection, vehicle: saline, higher = larger tumour): 64 % of control
- T/C (endpoint: median survival time, dose: 2.0 mg/kg/injection, vehicle: saline, higher = longer survival): 88 % of control

Structure (SMILES): Clc1ncnc2nc[nH]c12
- T/C (endpoint: mean tumor weight (est.), dose: 6.25 mg/kg/injection, vehicle: other, higher = larger tumour): 76 % of control
- T/C (endpoint: mean tumor weight (est.), dose: 12.5 mg/kg/injection, vehicle: other, higher = larger tumour): 91 % of control
- T/C (endpoint: mean tumor weight (est.), dose: 25.0 mg/kg/injection, vehicle: other, higher = larger tumour): 105 % of control
- T/C (endpoint: mean tumor weight (est.), dose: 50.0 mg/kg/injection, vehicle: other, higher = larger tumour): 89 % of control
- T/C (endpoint: mean tumor weight (est.), dose: 100.0 mg/kg/injection, vehicle: other, higher = larger tumour): 74 % of control
- T/C (endpoint: mean tumor weight, dose: 3.13 mg/kg/injection, vehicle: other, higher = larger tumour): 119 % of control
- T/C (endpoint: mean tumor weight, dose: 6.25 mg/kg/injection, vehicle: other, higher = larger tumour): 103 % of control
- T/C (endpoint: mean tumor weight, dose: 12.5 mg/kg/injection, vehicle: other, higher = larger tumour): 98 % of control
- T/C (endpoint: mean tumor weight, dose: 25.0 mg/kg/injection, vehicle: other, higher = larger tumour): 50 % of control
- T/C (endpoint: mean tumor weight, dose: 50.0 mg/kg/injection, vehicle: other, higher = larger tumour): 73 % of control
- T/C (endpoint: median survival time, dose: 3.13 mg/kg/injection, vehicle: other, higher = longer survival): 96 % of control and 110 % of control
- T/C (endpoint: median survival time, dose: 25.0 mg/kg/injection, vehicle: other, higher = longer survival): 96 % of control
- T/C (endpoint: median survival time, dose: 50.0 mg/kg/injection, vehicle: other, higher = longer survival): 100 % of control and 116 % of control
- T/C (endpoint: median survival time, dose: 100.0 mg/kg/injection, vehicle: other, higher = longer survival): 88 % of control

Structure (SMILES): O=C(CBr)c1ccc(I)cc1
- T/C (endpoint: median survival time, dose: 1.25 mg/kg/injection, vehicle: saline with Tween-80, higher = longer survival): 102 % of control
- T/C (endpoint: median survival time, dose: 2.5 mg/kg/injection, vehicle: saline with Tween-80, higher = longer survival): 86 % of control
- T/C (endpoint: median survival time, dose: 5.0 mg/kg/injection, vehicle: saline with Tween-80, higher = longer survival): 89 % of control
- T/C (endpoint: median survival time, dose: 10.0 mg/kg/injection, vehicle: saline with Tween-80, higher = longer survival): 104 % of control

Structure (SMILES): CCCCCCCCCCCCCCCC[N+](C)(C)c1nc(Cl)nc(Cl)n1
- T/C (endpoint: mean tumor weight (est.), dose: 7.5 mg/kg/injection, vehicle: saline, higher = larger tumour): 92 % of control
- T/C (endpoint: mean tumor weight (est.), dose: 15.0 mg/kg/injection, vehicle: saline, higher = larger tumour): 65 % of control
- T/C (endpoint: median survival time, dose: 7.5 mg/kg/injection, vehicle: saline, higher = longer survival): 106 % of control
- T/C (endpoint: median survival time, dose: 15.0 mg/kg/injection, vehicle: saline, higher = longer survival): 112 % of control
